Tests used:
KCNH6 [1] = target: T1, KCNH6 (Homo sapiens, UniProt Q9H252); experiment: whole-cell patch-clamp, peak tail current in transfected HEK293 cells; type: cell-based
T1 construct: human KCNH6 gene in pcDNA3.1, transiently expressed in HEK293 cells
T1 sequence (Q9H252 1-958): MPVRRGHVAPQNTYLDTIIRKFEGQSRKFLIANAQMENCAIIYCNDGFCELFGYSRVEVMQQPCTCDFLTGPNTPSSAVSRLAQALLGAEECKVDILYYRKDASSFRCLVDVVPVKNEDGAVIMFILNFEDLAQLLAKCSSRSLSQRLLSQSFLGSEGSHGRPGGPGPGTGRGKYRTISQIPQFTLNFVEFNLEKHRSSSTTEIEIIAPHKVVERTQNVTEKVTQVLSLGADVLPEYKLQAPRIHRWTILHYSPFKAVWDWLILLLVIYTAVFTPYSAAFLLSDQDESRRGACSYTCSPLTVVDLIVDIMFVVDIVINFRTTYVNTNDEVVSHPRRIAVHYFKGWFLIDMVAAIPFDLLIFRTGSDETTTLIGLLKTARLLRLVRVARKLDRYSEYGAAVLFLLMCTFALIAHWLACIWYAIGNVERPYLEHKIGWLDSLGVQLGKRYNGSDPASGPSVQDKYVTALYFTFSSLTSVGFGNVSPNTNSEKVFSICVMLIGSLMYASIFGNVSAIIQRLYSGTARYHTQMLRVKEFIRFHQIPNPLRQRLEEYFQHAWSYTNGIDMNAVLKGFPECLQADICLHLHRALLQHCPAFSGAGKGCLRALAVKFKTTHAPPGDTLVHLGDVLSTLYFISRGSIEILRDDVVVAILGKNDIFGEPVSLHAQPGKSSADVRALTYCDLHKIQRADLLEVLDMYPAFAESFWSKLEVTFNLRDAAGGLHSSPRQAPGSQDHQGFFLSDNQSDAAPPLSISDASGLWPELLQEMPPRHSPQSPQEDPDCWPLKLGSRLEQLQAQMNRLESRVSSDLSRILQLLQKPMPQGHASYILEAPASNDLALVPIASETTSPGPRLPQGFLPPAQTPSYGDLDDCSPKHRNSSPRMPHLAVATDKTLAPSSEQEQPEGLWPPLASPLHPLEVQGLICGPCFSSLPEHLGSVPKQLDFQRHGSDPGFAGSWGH

KCNH6 [2] = target: T1, KCNH6; experiment: whole-cell patch-clamp in transfected HEK293 cells (inhibitor control); type: cell-based

Row | Structure (SMILES) | IC50 (KCNH6 [1]) | whole-cell patch-clamp in transfected HEK293 cells (inhibitor control) (KCNH6 [2])
1 | COc1cc(N)c(Cl)cc1C(=O)NC1CCN(CCCOc2ccc(F)cc2)CC1OC (centres unmarked) [cisapride] | 6.04 nM | 
2 | CN(CCOc1ccc(NS(C)(=O)=O)cc1)CCc1ccc(NS(C)(=O)=O)cc1 [dofetilide] |  | E4031 and dofetilide were used as inhibitor controls

From article PMC9618959, “Cisapride induced hypoglycemia via the KCNH6 potassium channel” (Frontiers in Endocrinology, 2022)
